Laboratory results: patent EP4772502A1, “ARYL OR HETEROARYL SUBSTITUTED CARBAMATE COMPOUND AND DERIVATIVE AND USE THEREOF” (Shenzhen Zhongge Biological Technology Co., Ltd., priority 2023, dated 2025)

test system: AMPK; assay: not given; conditions: Tamura et al., Bioorganic & Medicinal Chemistry Letters, Vol. 68, 2022, 128769; cited from earlier work

Compound	AMPK agonist activity
O=C(Nc1ncc(-c2ccc(-c3ccccc3)cc2)s1)O[C@@H]1CO[C@H]2[C@@H]1OC[C@H]2O [compound 11]	no AMPK agonist activity

biological target: T1, AMPKα1β1γ1 (Homo sapiens, UniProt Q13131+Q9Y478); assay: In vitro assay for AMPK (α1β1γ1) enzyme agonist activity (TR-FRET); format: biochemical; conditions: 1 h; activity of 1 µM A769662 set as 100%; read-out: Top value (%)
T1 construct: purchased CARNA 02-113
T1 sequence (Q13131 whole entry): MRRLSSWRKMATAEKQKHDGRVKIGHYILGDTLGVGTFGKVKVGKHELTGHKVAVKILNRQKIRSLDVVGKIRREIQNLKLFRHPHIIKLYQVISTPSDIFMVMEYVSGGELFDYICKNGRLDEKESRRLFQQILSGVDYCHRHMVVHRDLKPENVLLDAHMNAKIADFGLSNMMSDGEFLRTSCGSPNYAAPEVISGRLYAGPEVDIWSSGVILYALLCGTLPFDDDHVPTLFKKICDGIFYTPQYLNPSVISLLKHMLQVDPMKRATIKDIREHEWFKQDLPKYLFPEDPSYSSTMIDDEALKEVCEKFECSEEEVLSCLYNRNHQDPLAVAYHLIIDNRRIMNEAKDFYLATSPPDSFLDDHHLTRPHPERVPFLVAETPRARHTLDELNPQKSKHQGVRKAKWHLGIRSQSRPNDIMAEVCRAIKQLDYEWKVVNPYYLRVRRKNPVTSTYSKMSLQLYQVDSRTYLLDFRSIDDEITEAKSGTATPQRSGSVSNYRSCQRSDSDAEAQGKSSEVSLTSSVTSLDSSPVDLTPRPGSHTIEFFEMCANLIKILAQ
T1 sequence (Q9Y478 whole entry): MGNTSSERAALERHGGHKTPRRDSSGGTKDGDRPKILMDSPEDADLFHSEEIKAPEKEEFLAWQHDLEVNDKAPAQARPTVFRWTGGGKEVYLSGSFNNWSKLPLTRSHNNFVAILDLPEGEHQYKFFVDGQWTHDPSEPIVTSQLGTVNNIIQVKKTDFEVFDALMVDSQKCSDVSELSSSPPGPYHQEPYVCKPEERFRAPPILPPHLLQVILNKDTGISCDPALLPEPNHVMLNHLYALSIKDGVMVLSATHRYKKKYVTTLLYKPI
T1 sequence (P54619 whole entry partner): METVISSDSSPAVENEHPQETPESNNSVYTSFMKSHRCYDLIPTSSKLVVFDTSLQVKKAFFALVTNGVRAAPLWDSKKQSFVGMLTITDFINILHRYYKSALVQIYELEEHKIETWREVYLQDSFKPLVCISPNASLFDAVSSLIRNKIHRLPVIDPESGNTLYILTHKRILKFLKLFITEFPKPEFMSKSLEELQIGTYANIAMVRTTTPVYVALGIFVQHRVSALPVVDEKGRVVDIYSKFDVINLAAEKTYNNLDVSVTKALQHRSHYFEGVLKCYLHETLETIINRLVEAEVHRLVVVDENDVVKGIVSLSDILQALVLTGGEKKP
Method: Test example 1: In vitro assay for AMPK (α1β1γ1) enzyme agonist activity
Test compounds were dissolved in DMSO to prepare 10 mM stock solution, which was then diluted to the predetermined test concentrations using kinase buffer (50 mM HEPES, 1 mM EDTA, 10 mM MgCl2, 0.01% Brij-35, pH = 7.5). Into a 384-well plate were added 5 µL of AMPKα1β1γ1 (CARNA, 02-113), 2.5 µL of the diluted test compound solution, and 2.5 µL of a mixture of […] and ATP, resulting in the following final concentrations: AMPKα1β1γ1 at 1.6 mg/L, […] at 5 nM, and ATP at 0.1 mM. The components were mixed evenly, and reacted at room temperature for 1 h. Subsequently, 5 µL of LANCE Detection Buffer (CR97-100, PerkinElmer) containing 40 mM EDTA was added. After standing for 5 min, 5 µL of 4× Eu-anti-phospho-CREB Antibody (TRF0200-M, PerkinElmer) was added, and the mixture was allowed to stand at room temperature for 1 h. The values of samples in each well were read using a microplate reader in TR-FRET mode (excitation wavelength: 320 nm; emission wavelengths: 665 nm and 615 nm). By comparing the values with those of the blank control group (1% DMSO) and the positive control group (1 µM A769662), the relative activity of AMPKα1β1γ1 at each test compound concentration (4.57 nM, 13.72 nM, 41.15 nM, 123.46 nM, 370.37 nM, 1111.11 nM, 3333.33 nM, and 10000 nM) was calculated, with the activity of 1 µM A769662 set as 100%. The data were analysed in GraphPad Prism 9 using a Dose-response-Stimulation four-parameter regression model to obtain the Top and EC50 values for the test compounds.

Compound	Emax [%]
O=C(Nc1cc(Cl)c(C#CC2(O)CCC2)s1)O[C@@H]1CO[C@H]2[C@@H]1OC[C@H]2O [Compound 28]	70 to 100
NCCCOc1ccc(-c2sc(NC(=O)O[C@@H]3CO[C@H]4[C@@H]3OC[C@H]4O)cc2Cl)cc1 [Compound 31]	150 to 200
NCCCc1ccc(-c2sc(NC(=O)O[C@@H]3CO[C@H]4[C@@H]3OC[C@H]4O)cc2Cl)cc1 [Compound 32]	100 to 150
CCOC(=O)[C@H]1CC[C@H](OC(=O)Nc2cc(Cl)c(-c3ccc(C4(CO)CC4)cc3)s2)CC1 [Compound 37]	70 to 100
O=C(Nc1cc(Cl)c(-c2ccc(C3(CO)CC3)cc2)s1)O[C@H]1CC[C@H](C(=O)O)CC1 [Compound 38]	150 to 200
O=C(Nc1cc(Cl)c(-c2ccc(C3(CO)CC3)cc2)s1)O[C@H]1CC[C@H](CO)CC1 [Compound 39]	100 to 150
CCc1cc(NC(=O)O[C@@H]2CO[C@H]3[C@@H]2OC[C@H]3O)sc1-c1ccc(C2(CO)CC2)cc1 [Compound 40]	100 to 150
O=C(Nc1cc(Cl)c(-c2ccc(-c3ccccc3O)cc2)s1)OCCCO [Compound 42]	150 to 200
O=C(Nc1cc(-c2ccc(C3(CO)CC3)cc2)c(Cl)s1)O[C@@H]1CO[C@H]2[C@@H]1OC[C@H]2O [compound 1]	200 to 300
O=C(Nc1cc(-c2ccc(C3(CO)CC3)cc2)cs1)O[C@@H]1CO[C@H]2[C@@H]1OC[C@H]2O [compound 2]	150 to 200
O=C(Nc1cc(Cl)c(-c2ccc(C3(CO)CC3)cc2)s1)O[C@@H]1CO[C@H]2[C@@H]1OC[C@H]2O [compound 3]	200 to 300
O=C(Nc1cc(Cl)c(-c2ccc(-c3ccccc3)cc2)s1)O[C@@H]1CO[C@H]2[C@@H]1OC[C@H]2O [compound 4]	150 to 200
Cn1ccc2cc(-c3sc(NC(=O)O[C@@H]4CO[C@H]5[C@@H]4OC[C@H]5O)cc3Cl)ccc21 [compound 5]	150 to 200
O=C(Nc1cc(Cl)c(-c2ccc(-c3ccccc3O)cc2)s1)O[C@@H]1CO[C@H]2[C@@H]1OC[C@H]2O [compound 6]	200 to 300
O=C(Nc1cc(Cl)c(-c2ccc(C3(O)CCC3)cc2)s1)O[C@@H]1CO[C@H]2[C@@H]1OC[C@H]2O [compound 7]	200 to 300
Cc1cc(NC(=O)O[C@@H]2CO[C@H]3[C@@H]2OC[C@H]3O)sc1-c1ccc(C2(CO)CC2)cc1 [compound 8]	200 to 300
O=C(Nc1cc(Cl)c(-c2ccc(N3CCOCC3)cc2)s1)O[C@@H]1CO[C@H]2[C@@H]1OC[C@H]2O [compound 9]	150 to 200
COc1ccc(-c2sc(NC(=O)O[C@@H]3CO[C@H]4[C@@H]3OC[C@H]4O)cc2Cl)cc1 [compound 10]	200 to 300
O=C(Nc1csc(-c2ccc(C3(CO)CC3)cc2)c1)O[C@@H]1CO[C@H]2[C@@H]1OC[C@H]2O [compound 13]	200 to 300
O=C(Nc1cc(Cl)c(-c2ccc(N3CCCC3)cc2)s1)O[C@@H]1CO[C@H]2[C@@H]1OC[C@H]2O [compound 14]	70 to 100
Cn1ccc2cc(-c3sc(NC(=O)OCCCO)cc3Cl)ccc21 [compound 15]	70 to 100
O=C(Nc1cc(Cl)c(C#Cc2ccccc2)s1)O[C@@H]1CO[C@H]2[C@@H]1OC[C@H]2O [compound 17]	200 to 300
O=C(Nc1cc(Cl)c(-c2ccc3c(ccn3C3CC3)c2)s1)O[C@@H]1CO[C@H]2[C@@H]1OC[C@H]2O [compound 18]	150 to 200
CS(=O)(=O)c1ccc(-c2ccc(-c3sc(NC(=O)O[C@@H]4CO[C@H]5[C@@H]4OC[C@H]5O)cc3Cl)cc2)cc1 [compound 19]	150 to 200
O=C(Nc1cc(Cl)c(C#Cc2ccccc2O)s1)O[C@@H]1CO[C@H]2[C@@H]1OC[C@H]2O [compound 20]	≥ 300
O=C(Nc1cc(C2CC2)c(-c2ccc(C3(CO)CC3)cc2)s1)O[C@@H]1CO[C@H]2[C@@H]1OC[C@H]2O [compound 22]	150 to 200
O=C(Nc1cc(Cl)c(-c2ccc(OCCCN3CCOCC3)cc2)s1)O[C@@H]1CO[C@H]2[C@@H]1OC[C@H]2O [compound 23]	≥ 300
CN1CCC(c2ccc(-c3sc(NC(=O)O[C@@H]4CO[C@H]5[C@@H]4OC[C@H]5O)cc3Cl)cc2)CC1 [compound 24]	150 to 200
